Measurements reported in patent publication US20120115905A1, “Nitrone, Nitroso, and Nitroxide Spintraps and Spin Labels and Their Hydroxylamines” (priority 2010, published 2012).
“Also recorded” adds a separate entry of the source.

Legend:
animal models = settings: cited from earlier work
humans = settings: human clinical trials, even at several grams per day doses; cited from earlier work
trigeminal neuralgia = experiment: Treatment of trigeminal neuralgia in a patient; format: in vivo, human; settings: for trigeminal neuralgia (summary statement): humans, route and dose not stated
Method: (§1) The reduced form of TEMPOL (TEMPOL-H) or equivalent pharmacologically-active spin label/spintrap is prepared by mixing together 2 grams of TEMPOL or a pharmacologically effective amount of another spin-label or spin trap such as methynitrosopropane, 20 grams of ascorbic acid or other reducing compound in 100 ml of distilled water. The formulation is used as is. The solution is slightly-bitter. The formulation can be administered diluted in a suitable liquid such as juice, tea, or coffee. An equivalent dry form as 10 mg of tempol mixed with 100 mg of acsorbic acid or equivalent reducing substance can be easily prepared in capsule or tablet form.
(§2) One-half ml of the above solution, comprising 10 mg TEMPOL plus 100 mg ascorbic acid, was administered orally once a day to a 50 kg person with a long history for fibrocystic disease of breast so severe that surgeons had recommended mastectomy. The same person had also been previously-diagnoses with severe trigeminal neuralgia.
(§3) Long-term relief can be achieved, but the symptoms eventually reappear on cessation of treatment for a few weeks.

[1] = system: fibrocystic disease of breast; experiment: Treatment of fibrocystic disease of breast in a patient; format: in vivo, human
Method: as §1, §2, §3

rectal hemorrhoids = experiment: Treatment of rectal hemorrhoids; format: in vivo, human; settings: for rectal hemorrhoids (summary statement): humans, route and dose not stated
Method: Boil until methycellulose dissolves (5-10 minutes)
Alternative is I million-dalton MW 1% propylcellulose, which dissolves overnight without boiling.
Add 5 grams TEMPOL with stirring

[2] = system: premenstrual dysphoric disorder; experiment: Treatment of premenstrual dysphoric disorder; format: in vivo, human; settings: for premenstrual dysphoric syndrome and its associated comorbid symptoms (summary statement): humans, route and dose not stated
Method: as §1, §2

[3] = system: gingivitis and peridontitis; experiment: Treatment of gingivitis and peridontitis; format: in vivo, human; settings: for peridontitis and gingivitis (summary statement): humans, route and dose not stated
post-herpetic neuropathy = experiment: Treatment of post-herpetic neuropathy / neuralgia; format: in vivo, human; settings: for post-herpetic neuralgia (summary statement): humans, route and dose not stated
Method: as §1
One-half ml of the above solution was orally-administered daily to a middle-aged person with chronic post-herpetic neuropathy of the feet, peridontitis, and gingivitis.

herpes zoster lesions = experiment: Treatment of herpes zoster lesions; format: in vivo, human; settings: for herpes zoster lesions (summary statement): humans, route and dose not stated
influenza = experiment: Amelioration of influenza symptomology; format: in vivo, human; settings: for influenza (summary statement): humans, route and dose not stated
migraine headache = experiment: Treatment of migraine headache; format: in vivo, human; settings: for migraine headache (summary statement): humans, route and dose not stated
Method: as §1, §2

cyclic vomiting syndrome = experiment: Treatment of cyclic vomiting syndrome; format: in vivo, human; settings: the above treatment (10 mg TEMPOL plus 100 mg ascorbic acid orally once a day)
rhinositis = experiment: Local nasal treatment of rhinositis; format: in vivo, human; settings: 0.1 ml applied locally to the nasal cavity
[4] = system: peripheral vascular disease; experiment: Treatment of peripheral vascular disease; format: in vivo, human; settings: the above treatment (10 mg TEMPOL plus 100 mg ascorbic acid orally once a day)
[5] = 10 mg TEMPOL plus 100 mg ascorbic acid orally once a day, same patient
[6] = one-half ml of solution orally daily, middle-aged male
[7] = topical application once a day to the affected area

## CC(C)(C)[N+]([O-])=Cc1ccc(S(=O)(=O)[O-])cc1S(=O)(=O)[O-].[Na+].[Na+] [NXY-059, disulfonyl PBN]
Animal models
  neuroprotective efficacy in animal models: effective in animal models
humans
  neuroprotective efficacy in humans: not in humans; also recorded: perpetual failure

## CC1(C)CC(O)CC(C)(C)N1[O] [TEMPOL, 4-hydroxy-2,2,6,6-tetramethylpiperidin-1-yloxy]
Trigeminal neuralgia
  trigeminal neuralgia (summary statement): ameliorate
[1]; same doses as the reduced formulation
  efficacy of Tempol itself (unreduced): effective at the same doses
Rectal hemorrhoids; 0.2 ml of 5% solution (methyl cellulose gel) transrectally for one to three days
  symptoms of rectal hemorrhoids: ameliorates the symptoms of rectal hemorrhoids, especially pain, swelling, and bleeding
Rectal hemorrhoids
  rectal hemorrhoids (summary statement): ameliorate
[2]
  premenstrual dysphoric syndrome and its associated comorbid symptoms (summary statement): ameliorate
[3]; 0.5 ml of 5% TEMPOL liquid or gel applied to the affected gums for one to three days
  gingivitis and peridontitis, local intraoral treatment: reducing tenderness and bleeding
[3]
  peridontitis and gingivitis (summary statement): ameliorate
post-herpetic neuropathy
  post-herpetic neuralgia (summary statement): prevent and treat
Herpes zoster lesions
  herpes zoster lesions (summary statement): prevent and treat
influenza
  influenza (summary statement): ameliorate
Migraine headache
  migraine headache (summary statement): prevent and treat

## CC1(C)CC(O)CC(C)(C)N1O [TEMPOL-H]
Trigeminal neuralgia; [5]
  effect on long-standing trigeminal neuralgia: alleviated and prevented
Trigeminal neuralgia
  trigeminal neuralgia (summary statement): ameliorate
Cyclic vomiting syndrome
  cyclic vomiting syndrome: prevents, controls, and ameliorates
[1]; 10 mg TEMPOL plus 100 mg ascorbic acid orally once a day, one patient
  time until first results appeared: 1-2 weeks
[1]; 10 mg TEMPOL plus 100 mg ascorbic acid orally once a day, one patient, mammographic imaging and digital palpation
  regression / shrinkage of the breast cysts: almost complete regression; also recorded: shrinkage of the breast cysts
[1]; resumption after cessation of treatment for a few weeks, same oral dose
  breast cysts upon resumption of treatment: again drastically shrink
Rectal hemorrhoids
  rectal hemorrhoids (summary statement): ameliorate
[2]; [5]
  symptoms of anxiety/depression and mood swings outside the premenstrual time period: Efficacy was observed
  symptoms of premenstrual dysphoric disorder including comorbidity: alleviates and prevents
[2]
  premenstrual dysphoric syndrome and its associated comorbid symptoms (summary statement): ameliorate
[3]
  peridontitis and gingivitis (summary statement): ameliorate
[3]; [6]
  symptomatic relief of peridontitis and gingivitis: Symptomatic relief of all of these was experienced within one week
[3]; topical application of the reduced TEMPOL solution
  gingivitis and peridontitis, topical application: also effective
post-herpetic neuropathy
  post-herpetic neuralgia (summary statement): prevent and treat
post-herpetic neuropathy; [6]
  symptomatic relief of chronic post-herpetic neuropathy of the feet: Symptomatic relief of all of these was experienced within one week
post-herpetic neuropathy; [7]
  post-herpetic neuralgia, topical application: also effective
rhinositis
  rhinositis: ameliorates rhinositis
Herpes zoster lesions
  herpes zoster lesions (summary statement): prevent and treat
Herpes zoster lesions; [7]
  herpes zoster lesions, topical application: also effective
[4]
  peripheral vascular disease: controls, and ameliorates
influenza
  influenza (summary statement): ameliorate
influenza; one-half ml orally once or twice daily
  symptoms of influenza: significantly-ameliorates
Migraine headache
  migraine headache (summary statement): prevent and treat
Migraine headache; the above treatment (10 mg TEMPOL plus 100 mg ascorbic acid orally once a day)
  migraine headache prevention and symptoms: both prevents migraine headache and ameliorates the symptoms
